# Assays:
# Format in all cases: cell-based, human
# Nalm6-GD2 = assay: IL-2 and IFNγ ELISA, HA CAR T cells stimulated with Nalm6-GD2 with or without EHNA; conditions: 10 uM EHNA
# Experimental: HA CAR T cells were stimulated with Nalm6-GD2 tumor line in the presence or absence of 10 uM of EHNA inhibitor at day 15 post-activation. IL-2 and IFNγ secretion was assessed using ELISA. One donor shown.
# In some further experiments, CAR T cells overexpressing either ADA1-TM or ADA2-TM were activated with Nalm6-GD2 in the presence or absence of 10 uM of adenosine deaminase inhibitor—EHNA. It was observed that both CAR T cells overexpressing either HA-ADA1-TM or HA-ADA2-TM produced more IL-2 and IFNγ as compared to control group and this increase was abrogated in the presence of EHNA (see e.g., FIG. 12D).
# NF-kB pathway = assay: NF-κB-GFP activation reporter in HA CAR-T cells
# Description: FIG. 7C illustrates NFkB-GFP activation level 4 hrs after stimulation of HA CAR T cells in the presence or absence of NECA and A2aR competitive inhibitor. Data are mean s.e.m. from triplicate wells.
# To test whether CAR T cells are susceptible to adenosine-mediated suppression, HA and CD19 CAR T cells were activated with plate-bounded idiotype in the presence or absence of the adenosine receptor agonist 5′-(N-ethylcarboxamido) adenosine (NECA), and analyzed the effector cytokine secretion capacity by ELISA (FIG. 6D; FIGS. 7A-7B). […] Adenosine-dependent a2aR stimulation led to elevate intracellular 3′,5′-cyclic adenosine monophosphate (cAMP) which in turn inhibited the NF-kB pathway and cell proliferation (FIG. 6A). To evaluate whether adenosine suppression of CAR T cells worked through the same mechanisms, an NF-κB activation reporter was constructed by placing the Green Fluorescence Protein (GFP) gene downstream of NF-κB response elements. HA CAR-T cells were co-transduced with this NF-kB-GFP reporter. Upon activation with plate-bound idiotype, NECA diminished activation of the NF-kB-GFP reporter (FIG. 7C). This inhibitory effect on activation was prevented by addition of the selective A2aR competitive antagonist (iA2aR), confirming A2a receptor (A2aR) involvement in the suppressive effect of NECA on HA CAR-T cells.
# HA and CD19 CAR T cells = assay: Cytokine secretion by idiotype-activated CAR T cells with NECA (ELISA); conditions: plate-bound idiotype, NECA treatment
# Experimental: Co-culture Assays: CAR-T cells were cultured with 1 μM of CPI444 (CORVUS BIOPHARMA) for 2 to 24 hours before the duration of co-culture (unless stated otherwise) with tumor cells or plate-bound idiotype at the concentration 1 or 5 μg/ml. To stimulate a2aR, cells were treated with 0.01-0.1 mM of NECA (Torcis). For cytotoxicity assays, approximately 5×10^4 of tumor cells were co-cultured with CAR T cells at indicated ratio in 200 μL CM in 96-well flat bottom plates. Four images per well at 10× zoom were collected at each time point. Tumor cell growth was quantified by measuring total integrated GFP intensity per well using an IncuCyte ZOOM Live-Cell analysis system (Essen Bioscience) every 2-3 hr. GFP signal was normalized to the time 0 signal. Cell culture supernatants were collected at 24 hours, and interleukin-2 (IL-2) and interferon-g concentrations were determined by enzyme-linked immunosorbent assay (Biolegend). Triplicate wells were plated for each condition. […]
# To test whether CAR T cells are susceptible to adenosine-mediated suppression, HA and CD19 CAR T cells were activated with plate-bounded idiotype in the presence or absence of the adenosine receptor agonist 5′-(N-ethylcarboxamido) adenosine (NECA), and analyzed the effector cytokine secretion capacity by ELISA (FIG. 6D; FIGS. 7A-7B). […]
# CD19.BBz CAR T cells = assay: Suppression assay: IL-2 secretion by CD19 CAR T cells with HA CAR T cells present; conditions: CD19 CAR T cells pre-incubated with A2aR inhibitor, in the presence of adenosine-producing HA cells
# Experimental: Suppression Assay: For assessing IL-2 secretion inhibition 5×10^4 CD19 CAR T cells 5×10^4 Nalm6 tumor cells together with 5×10^4 of HA CAR or Mock T cells were cultured in 300 μL CM in 96-well flat bottom plates for 24 h. Triplicate wells were plated for each condition. Culture supernatants were collected and analyzed for IL-2 by ELISA (BioLegend).
# IL-2 secreted by CD19.BBz CAR T cells co-cultured with Nalm6 leukemia cells was measured in the presence or absence of bulk or sorted CD8+HA CAR T cells for 24 hours.
# To test this hypothesis that adenosine production was responsible for the suppressive function of exhausted CAR T cells over neighboring cells, whether HA CAR-T cells were able to produce adenosine in an autocrine manner was investigated (FIG. 7D). Next, CD19 CAR T cells that were pre-incubated with A2aR inhibitor were activated in the presence or absence of (CD8) HA CAR T cells.
compound,measurement,setting,value
CCCCCC[C@@H]([C@@H](C)O)n1cnc2c(N)ncnc21 (racemic) [EHNA],increase in IFNγ by CAR T cells overexpressing HA-ADA1-TM or HA-ADA2-TM,Nalm6-GD2,abrogated
same,increase in IL-2 by CAR T cells overexpressing HA-ADA1-TM or HA-ADA2-TM,Nalm6-GD2,abrogated
"CCNC(=O)[C@H]1O[C@@H](n2cnc3c(N)ncnc32)[C@H](O)[C@@H]1O [NECA, 5′-(N-ethylcarboxamido) adenosine]",activation of the NF-kB-GFP reporter,NF-kB pathway; plate-bound idiotype,diminished
same,IFNγ production,HA and CD19 CAR T cells,reduced
same,IL-2 production,HA and CD19 CAR T cells,reduced
Cc1ccc(-c2nc(N)nc3c2nnn3Cc2cccc(CO[C@H]3CCOC3)n2)o1 [iA2aR],IL-2 production by CD19 CAR T cells,CD19.BBz CAR T cells,restored IL-2 production
same,inhibitory effect of NECA on NF-kB-GFP reporter activation,NF-kB pathway; A2aR antagonist added,prevented

# — patent US20250134998A1, “T CELLS WITH CELL-SURFACE EXPRESSION OF ADENOSINE DEAMINASE AND USES THEREOF” (The Board of Trustees of the Leland Stanford Junior …, priority 2021, published 2025)
